{
  "source": "paper PMC10937676",
  "about": "“Targeting the NTSR2/TrkB oncogenic pathway in chronic lymphocytic leukemia” (Scientific Reports, 2024)",
  "system": "MCL-1 mRNA",
  "assay": "RTqPCR, mRNA level of MCL-1 in CLL-B cells",
  "format": "cell-based, human",
  "settings": "CLL-B cells from 12 patients, overnight, 10 µM, 18S housekeeping gene",
  "text": "Concerning anti-apoptotic protein expression, a decrease in anti-apoptotic proteins BCL-2; BCL-XL and MCL-1 was observed after TAT-Pep treatment of CLL-B cells, possibly as a consequence of the SRC kinase inactivation (Fig. 6A–C). To unveil whether the regulation mechanism behind the observed modifications was transcriptional or post-transcriptional, we evaluated the mRNA levels of all three anti-apoptotic proteins following peptide treatment. […] To further underline that the induction of cell death following TAT-Pep treatment involved apoptosis regulation pathways, we used B cells from six CLL patients and stained them with Annexin V in both TAT-Pep treated and untreated conditions. […]\nFigure 6 The peptide lowers anti-apoptotic proteins levels. […] CLL-B cells from 12 patients were incubated overnight, with or without 10 µM of TAT-Pep, subsequently RNA was extracted from cell lysates and mRNA levels of BCL-2 (D); BCL-XL (E) and MCL-1 (F) were evaluated using RTqPCR; 18S was used as a housekeeping gene. (G) Increased concentrations (0 to 30 µM) of TAT-Pep were incubated with 20,000 CLL-B, and the number of Annexin V-positive cells was measured using the Incucyte live-cell imaging device. Fluorescence was monitored for 48 h. […] The ‘Green Object Count/Phase Object Count’ ratio was determined using the Incucyte analysis software to obtain the percentage of apoptotic cells. […]",
  "data": [
    {"sequence": "GRKKRRQRRRPPQNAVSSSFRKLFLEAVSSLCGEHHPMKRLPPKPQSPTLMDTASGFGDPPETRT [TAT-Pep]", "values": [
      {"measurement": "mRNA level of MCL-1 (in words)", "value": "significantly lowered expression"}
    ]}
  ]
}
